# From ChEMBL document CHEMBL1949584, “Design and synthesis of novel inhibitors of human kynurenine aminotransferase-I” (Bioorg Med Chem Lett, 2012)
# Molecular target: T1, Kynurenine--oxoglutarate transaminase 1 (Homo sapiens, UniProt Q16773)
# T1 sequence (Q16773 whole entry): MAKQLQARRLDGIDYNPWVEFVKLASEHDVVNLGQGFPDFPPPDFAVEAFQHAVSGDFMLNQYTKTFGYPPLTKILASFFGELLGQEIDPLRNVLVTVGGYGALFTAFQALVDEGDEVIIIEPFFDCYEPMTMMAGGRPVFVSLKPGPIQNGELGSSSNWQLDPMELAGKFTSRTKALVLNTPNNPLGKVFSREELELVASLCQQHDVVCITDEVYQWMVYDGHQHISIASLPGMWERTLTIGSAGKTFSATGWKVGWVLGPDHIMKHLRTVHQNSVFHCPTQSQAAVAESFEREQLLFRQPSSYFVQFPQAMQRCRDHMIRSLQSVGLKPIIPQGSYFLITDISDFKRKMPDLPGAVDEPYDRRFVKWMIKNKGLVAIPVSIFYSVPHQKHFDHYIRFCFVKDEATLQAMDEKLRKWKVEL
# Assay: Inhibition of human recombinant KAT1 after 20 mins by RP-HPLC analysis
row,IC50 [µM],SMILES
1,21,CCOC(=O)/C(CCCC(=O)O)=N\Nc1ccc(Br)cc1
2,20,CCOC(=O)/C(CCCC(=O)O)=N\Nc1ccc(Cl)cc1
3,33,CCOC(=O)/C(CCCC(=O)O)=N\Nc1ccc(C)cc1
4,179,CCOC(=O)/C(CCCC(=O)O)=N\Nc1ccc([N+](=O)[O-])cc1
5,43,CCOC(=O)/C(CCCC(=O)O)=N\Nc1ccc(OC)cc1
6,20,CCOC(=O)/C(CCCC(=O)O)=N\Nc1cccc(Cl)c1
7,293,O=C(O)CCc1c(C(=O)O)[nH]c2ccc(Cl)cc12
8,> 1000,Cc1ccc2[nH]c(C(=O)O)c(CCC(=O)O)c2c1
9,666,O=C(O)CCc1c(C(=O)O)[nH]c2ccc([N+](=O)[O-])cc12
10,> 6000,COc1ccc2[nH]c(C(=O)O)c(CCC(=O)O)c2c1
11,271,O=C(O)CCc1c(C(=O)O)[nH]c2ccc(Br)cc12
12,34,CCOC(=O)/C(CCCC(=O)O)=N\Nc1ccc(I)cc1

# Molecular target: T2, Kynurenine--oxoglutarate transaminase 1 (Homo sapiens) (UniProt Q16773)
# T2 sequence (whole entry): T1 sequence (Q16773 whole entry)
# Assay: Ratio of compound IC50 to indole-3-propionic acid IC50 for human recombinant KAT1
row,Ratio IC50,SMILES
1,7,CCOC(=O)/C(CCCC(=O)O)=N\Nc1ccc(Cl)cc1
2,7,CCOC(=O)/C(CCCC(=O)O)=N\Nc1cccc(Cl)c1
